Legend:
Experiment in all cases: relative viability (nuclei count vs DMSO), 5 days (fraction); higher = more cells survive
Ponatinib + Navitoclax = compound: Cc1ccc(C(=O)Nc2ccc(CN3CCN(C)CC3)c(C(F)(F)F)c2)cc1C#Cc1cnc2cccnn12 [Ponatinib] + CC1(C)CCC(c2ccc(Cl)cc2)=C(CN2CCN(c3ccc(C(=O)NS(=O)(=O)c4ccc(N[C@H](CCN5CCOCC5)CSc5ccccc5)c(S(=O)(=O)C(F)(F)F)c4)cc3)CC2)C1 [Navitoclax] (partner 0.5 µM)
In short: (§1)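 Relative viability divides the nuclei count in treated wells by that in vehicle wells. Lung cancer cell lines were seeded in 1536-well plates, dosed by pin tool the next day, and fixed and stained after 5 days in one step with final 0.05% Triton X-100, 1% formaldehyde and 1 ug/ml Hoechst. Dosing was a single drug or a fixed anchor-drug dose plus five library-drug doses (not always all listed) in √10 steps, and values are medians of duplicate plates imaged at 4×.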

Ponatinib + Foretinib = compound: Cc1ccc(C(=O)Nc2ccc(CN3CCN(C)CC3)c(C(F)(F)F)c2)cc1C#Cc1cnc2cccnn12 [Ponatinib] + COc1cc2c(Oc3ccc(NC(=O)C4(C(=O)Nc5ccc(F)cc5)CC4)cc3F)ccnc2cc1OCCCN1CCOCC1 [Foretinib] (partner 0.25 µM)
In short: as §1

Pazopanib = compound: Cc1ccc(Nc2nccc(N(C)c3ccc4c(C)n(C)nc4c3)n2)cc1S(N)(=O)=O [Pazopanib]
In short: (§2)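 Nuclei counted with MetaXpress define viability as the ratio of treated to vehicle wells, given as a median across plates. The lung cancer cell lines were in 1536-well plates, pinned with five √10-spaced library-drug doses and imaged at 4× after 5 days and Hoechst staining. Plates passed with control CV below 25% and at least one doubling.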

Ponatinib = compound: Cc1ccc(C(=O)Nc2ccc(CN3CCN(C)CC3)c(C(F)(F)F)c2)cc1C#Cc1cnc2cccnn12 [Ponatinib]
In short: as §2

Cell Line	relative viability (Ponatinib + Navitoclax; first compound 0.002 µM)	relative viability (Ponatinib + Navitoclax; first compound 0.006325 µM)	relative viability (Ponatinib + Navitoclax; first compound 0.06325 µM)	relative viability (Ponatinib + Navitoclax; first compound 0.2 µM)	relative viability (Ponatinib + Foretinib; first compound 0.002 µM)	relative viability (Ponatinib + Foretinib; first compound 0.006325 µM)	relative viability (Ponatinib + Foretinib; first compound 0.06325 µM)	relative viability (Ponatinib + Foretinib; first compound 0.2 µM)	relative viability (Pazopanib; 0.01 µM)	relative viability (Pazopanib; 0.03162 µM)	relative viability (Pazopanib; 0.1 µM)	relative viability (Pazopanib; 0.3162 µM)	relative viability (Pazopanib; 1 µM)	relative viability (Ponatinib; 0.002 µM)	relative viability (Ponatinib; 0.006325 µM)	relative viability (Ponatinib; 0.06325 µM)	relative viability (Ponatinib; 0.2 µM)
NCI-H1734	0.805	0.828	0.877	0.739	0.73	0.895	0.821	0.809	0.776	1.03	1.11	1.13	1.12	0.938	0.974	1	0.871
LXF-289	0.862	0.957	0.935	0.971	0.92	0.952	0.96	0.943	1.07	0.989	1.04	0.997	1	0.948	0.998	0.984	0.969
H3255	0.477	0.501	0.725	0.479	0.739	0.898	0.699	0.773	0.925	0.965	0.869	0.998	1.01	0.867	0.97	0.984	0.908
201T	1.2	1.21	1.22	1.23	1.1	1.1	1.18	1.03	0.937	0.919	0.979	1.06	0.932	0.928	0.986	1.07	0.963
NCI-H2126	0.823	0.871	0.963	0.848	1.12	1.29	1.34	1.07	0.91	0.903	1.02	0.991	0.996	0.959	1.04	1.14	1.04
HOP-62	0.943	0.984	1.01	0.817	0.999	1	1	0.914	0.963	1	1.02	1.07	0.958	0.921	0.86	0.912	0.857
CAL-12T	1.07	1.16	1.43	1.24	1.16	0.979	1.21	1.09	1.15	0.99	0.986	1.02	1.13	0.929	0.951	1.15	0.97
NCI-H596	0.845	0.969	1.03	0.733	0.732	0.753	0.851	0.721	0.815	1.05	0.959	0.904	1.05	0.906	0.924	0.875	0.785
NCI-H1755	0.962	0.947	1.02	0.803	0.818	0.913	0.92	0.804	0.892	0.967	0.947	0.978	1.02	1.02	0.964	0.99	0.892
NCI-H2023	0.968	0.946	1.1	1	0.778	0.89	0.962	0.657	0.856	1	0.989	0.974	1.22	0.821	0.95	1.1	0.846
NCI-H2009	1.12	1.07	1.13	1.13	1.18	1.2	1.22	1.17	0.989	1.04	0.937	1.02	0.891	0.95	0.944	1.07	1.03
